Results reported in ChEMBL document CHEMBL1201862, “PubChem BioAssay data set” (2004).
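Method: 48-hour compound exposure of cells in 96-well plates, five concentrations, linear interpolation of endpoints. GI50 = concentration required for 50% inhibition of growth.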 Calls of active or inactive are those of the source. Cut-off read from the data, not from the text of the source: active = GI50 up to about 1.1 µM and inactive = higher. Where a SMILES comes first, the peptide text is derived from it. [ ]: non-standard residue; d: D form. The star is where a group is joined. ξ: configuration not given here. X38 = O=C(OCc1ccccc1)[C@@H]1CCC[C@H]1N*; Fmoc = O=C(OCC1c2ccccc2-c2ccccc21)*; ξW = NC(Cc1c[nH]c2ccccc12)C(=O)O; ξF = NC(Cc1ccccc1)C(=O)O; Boc = CC(C)(C)OC(=O)*; ξK = NCCCCC(N)C(=O)O; ξT = CC(O)C(N)C(=O)O; tBu = CC(C)(C)*

Assays:
Assay in all cases: growth of human tumour cells (NCI), 48 h
786-0 = system: 786-0
BT-549 = system: BT-549
HCT-116 = system: HCT-116
HL-60 = system: HL-60
HT-29 = system: HT-29
M14 = system: M14
MDA-MB-231 = system: MDA-MB-231
Malme-3M = system: Malme-3M
NCI-H522 = system: NCI-H522
NCI/ADR-RES = system: NCI/ADR-RES
OVCAR-3 = system: OVCAR-3
SF-295 = system: SF-295
SK-MEL-2 = system: SK-MEL-2
SNB-19 = system: SNB-19
TK-10 = system: TK-10
UACC-257 = system: UACC-257
A498 = system: A498
HCC 2998 = system: HCC 2998
LOX IMVI = system: LOX IMVI
SK-MEL-28 = system: SK-MEL-28

Measured: GI50

O=P1(Oc2ccccc2)N=P(c2ccccc2)(c2ccccc2)C=C(c2ccc(Cl)cc2)N1 (centres undefined)
inactive: 786-0 13.4 µM | BT-549 16 µM | HCT-116 7.23 µM | HL-60 4.86 µM | HT-29 4.29 µM | M14 7.67 µM | MDA-MB-231 16.5 µM | Malme-3M 15.5 µM | NCI-H522 10.1 µM | NCI/ADR-RES 10.9 µM | OVCAR-3 4.51 µM | SF-295 6.92 µM | SK-MEL-2 13.5 µM | SNB-19 15.3 µM | TK-10 13.1 µM | UACC-257 15.4 µM

COC(=O)[C@@H]1CN(C(=O)CCc2ccccc2)C(=O)N1
inactive: 786-0 > 100 µM | A498 > 100 µM | HCC 2998 > 100 µM | HCT-116 > 100 µM | HL-60 > 100 µM | HT-29 > 100 µM | LOX IMVI > 100 µM | M14 > 100 µM | MDA-MB-231 > 100 µM | Malme-3M > 100 µM | NCI-H522 > 100 µM | NCI/ADR-RES > 100 µM | OVCAR-3 > 100 µM | SF-295 > 100 µM | SK-MEL-28 > 100 µM | SK-MEL-2 > 100 µM | SNB-19 > 100 µM | TK-10 > 100 µM | UACC-257 > 100 µM

O=C1c2ccccc2NC(=O)C2C1C(c1ccccc1)CC2(O)c1ccccc1 (centres undefined)
inactive: 786-0 69.5 µM | A498 > 100 µM | HCC 2998 67 µM | HCT-116 16.9 µM | HL-60 53.1 µM | HT-29 26 µM | LOX IMVI 43.2 µM | M14 60.5 µM | MDA-MB-231 34.4 µM | Malme-3M > 100 µM | NCI/ADR-RES 31.7 µM | OVCAR-3 31.6 µM | SF-295 43.6 µM | SK-MEL-28 > 100 µM | SK-MEL-2 21.9 µM | SNB-19 35.2 µM | TK-10 39.3 µM | UACC-257 79.4 µM

C=CCn1c(=O)c2ccccc2[n+]2c(-c3cccc([N+](=O)[O-])c3)csc12
inactive: 786-0 48.9 µM | A498 31.6 µM | HCC 2998 > 100 µM | HCT-116 38.9 µM | HL-60 25.9 µM | HT-29 30.8 µM | LOX IMVI 56.8 µM | M14 62.7 µM | MDA-MB-231 87.3 µM | Malme-3M > 100 µM | NCI-H522 36.1 µM | NCI/ADR-RES 17.1 µM | OVCAR-3 33.9 µM | SF-295 53.1 µM | SK-MEL-28 66.7 µM | SK-MEL-2 30.6 µM | SNB-19 > 100 µM | TK-10 38.4 µM | UACC-257 36.3 µM

COC1CC(OC(=O)c2ccccc2)C(OC(=O)c2ccccc2)C(C)O1 (centres undefined)
inactive: 786-0 > 100 µM | A498 > 100 µM | HCC 2998 > 100 µM | HCT-116 > 100 µM | HL-60 > 100 µM | LOX IMVI > 100 µM | M14 > 100 µM | MDA-MB-231 > 100 µM | Malme-3M > 100 µM | NCI-H522 > 100 µM | NCI/ADR-RES > 100 µM | OVCAR-3 > 100 µM | SF-295 > 100 µM | SK-MEL-28 > 100 µM | SK-MEL-2 > 100 µM | SNB-19 > 100 µM | TK-10 > 100 µM | UACC-257 > 100 µM

NNC(=O)C(=O)NN=C(C(Cl)(Cl)CO)C(Cl)(Cl)CO
inactive: 786-0 36.4 µM | A498 > 100 µM | HCC 2998 31 µM | HCT-116 20.6 µM | HL-60 22.1 µM | HT-29 37.3 µM | LOX IMVI 16.9 µM | M14 24.4 µM | Malme-3M 19.8 µM | NCI-H522 12.1 µM | OVCAR-3 25.6 µM | SF-295 66.1 µM | SK-MEL-28 25.6 µM | SK-MEL-2 22.1 µM | SNB-19 48.1 µM | TK-10 60.3 µM | UACC-257 30.6 µM

FC(F)(F)c1nc(-c2ccccc2)oc1Sc1nnc(Sc2oc(-c3ccccc3)nc2C(F)(F)F)s1
inactive: 786-0 28.4 µM | A498 98.6 µM | HCC 2998 > 78.2 µM | HCT-116 > 65.3 µM | HL-60 14.2 µM | HT-29 > 100 µM | LOX IMVI 10.4 µM | M14 14.2 µM | Malme-3M 18.1 µM | NCI-H522 18.5 µM | OVCAR-3 > 43.4 µM | SF-295 > 67.1 µM | SK-MEL-28 > 55.3 µM | SK-MEL-2 86.7 µM | SNB-19 > 63.5 µM | TK-10 > 55.8 µM | UACC-257 > 69.7 µM

CC(=O)OCC1OC(n2ccc(=O)[nH]c2=O)C(OC(C)=O)C(OC(C)=O)C1OC(C)=O (centres undefined)
inactive: 786-0 > 100 µM | A498 > 100 µM | HCC 2998 > 100 µM | HCT-116 > 100 µM | HL-60 > 10 µM | HT-29 > 100 µM | LOX IMVI > 100 µM | M14 > 100 µM | Malme-3M > 100 µM | NCI-H522 > 100 µM | OVCAR-3 > 100 µM | SF-295 > 100 µM | SK-MEL-28 > 100 µM | SK-MEL-2 > 100 µM | SNB-19 > 100 µM | TK-10 > 100 µM | UACC-257 > 100 µM

NC(=S)c1cccc(C2Nc3ccccc3O2)c1 (centres undefined)
inactive: 786-0 > 100 µM | HCT-116 > 100 µM | HL-60 12.1 µM | HT-29 92.9 µM | M14 > 100 µM | MDA-MB-231 6.25 µM | Malme-3M > 100 µM | NCI-H522 71.1 µM | NCI/ADR-RES 43.9 µM | OVCAR-3 > 100 µM | SF-295 68.9 µM | SK-MEL-28 > 100 µM | SK-MEL-2 > 100 µM | SNB-19 > 100 µM | TK-10 81.1 µM | UACC-257 22.1 µM

C[n+]1c(-c2ccc(/C=N/NC(=N)N/N=C/c3ccc(-c4cn5cc(Cl)ccc5[n+]4C)cc3)cc2)cn2cc(Cl)ccc21
inactive: 786-0 73.3 µM | HCC 2998 > 100 µM | HCT-116 > 100 µM | HL-60 > 100 µM | HT-29 > 100 µM | M14 > 100 µM | MDA-MB-231 > 100 µM | NCI-H522 > 100 µM | NCI/ADR-RES > 100 µM | SF-295 > 100 µM | SK-MEL-28 > 100 µM | SNB-19 > 100 µM | TK-10 > 100 µM | UACC-257 > 100 µM

CC(OC(C)(C)C)C(NC(=O)C(CCCCNC(=O)OC(C)(C)C)NC(=O)C(Cc1c[nH]c2ccccc12)NC(=O)C(Cc1ccccc1)NC(=O)OCC1c2ccccc2-c2ccccc21)C(=O)NC(Cc1ccccc1)C(=O)N[C@@H]1CCC[C@H]1C(=O)OCc1ccccc1 (some centres undefined) (Fmoc-[ξF][ξW][ξK](Boc)[ξT](tBu)[ξF]-X38)
inactive: 786-0 > 100 µM | A498 > 10 µM | HCC 2998 > 100 µM | HCT-116 > 100 µM | HL-60 > 100 µM | HT-29 > 100 µM | LOX IMVI > 100 µM | M14 38.9 µM | MDA-MB-231 65.3 µM | Malme-3M > 100 µM | NCI-H522 > 100 µM | NCI/ADR-RES > 100 µM | OVCAR-3 > 100 µM | SF-295 > 100 µM | SK-MEL-28 > 100 µM | SK-MEL-2 32.1 µM | TK-10 > 100 µM | UACC-257 > 100 µM
